pIC50: −log10 of the molar value.
Assays:
COX-1 = target: T1, COX-1 (Homo sapiens, UniProt P23219); test: Whole cell cyclooxygenase assay in U-937 cells (COX-1, inhibition of PGE2 production); type: cell-based
T1 construct: human U-937 cells (which specifically express COX-1); endogenous in cells; host or cells: human U-937 cells
Protocol: Compounds are tested as inhibitors of cyclooxygenase activity in whole cell cyclooxygenase assays. Both of these assays measure prostaglandin E2 synthesis in response to arachidonic acid, using a radioimmunoassay. Cells used for these assays are human osteosarcoma 143 cells (which specifically express COX-2) and human U-937 cells (which specifically express COX-1). In these assays, 100% activity is defined as the difference between prostaglandin E2 synthesis in the absence and presence of arachidonate.
For cyclooxygenase assays, osteosarcoma cells are cultured in 1 mL of media in 24-well multidishes (Nunclon) until confluent (1-2 x 10^5 cells/well). U-937 cells are grown in spinner flasks and resuspended to a final density of 1.5 x 10^6 cells/mL in 24-well multidishes (Nunclon). Following washing and resuspension of osteosarcoma and U-937 cells in 1 mL of HBSS, 1 µL of a DMSO solution of test compound or DMSO vehicle is added, and samples gently mixed. All assays are performed in triplicate. Samples are then incubated for 5 or 15 minutes at 37C, prior to the addition of arachidonic acid. Arachidonic acid (peroxide-free, Cayman Chemical) is prepared as a 10 mM stock solution in ethanol and further diluted 10-fold in HBSS. An aliquot of 10 µL of this diluted solution is added to the cells to give a final arachidonic acid concentration of 10 µM. Control samples are incubated with ethanol vehicle instead of arachidonic acid. Samples are again gently mixed and incubated for a further 10 min. at 37C. For osteosarcoma cells, reactions are then stopped by the addition of 100 µL of 1N HCl, with mixing and by the rapid removal of the solution from cell monolayers. For U-937 cells, reactions are stopped by the addition of 100 µL of IN HCl, with mixing. Samples are then neutralized by the addition of 100 µL of 1N NaOH and PGE2 levels measured by radioimmunoassay.
In the assay, inhibition is determined by measuring the amount of prostaglandin E2 (PGE2) synthesized in the presence of arachidonic acid, COX-1 or COX-2 and a putative inhibitor.
The results for inhibition of PGE2 production may be seen in Table 7.

COX-2 = target: T2, COX-2 (Homo sapiens, UniProt P35354); test: Whole cell assay for COX-2 using CHO transfected cell lines (inhibition of PGE2 production); type: cell-based
T2 construct: expressed in transfected cells; host or cells: CHO cells stably transfected with pCDNAIII (CHO[hCOX-2])
T2 sequence (P35354 18-604): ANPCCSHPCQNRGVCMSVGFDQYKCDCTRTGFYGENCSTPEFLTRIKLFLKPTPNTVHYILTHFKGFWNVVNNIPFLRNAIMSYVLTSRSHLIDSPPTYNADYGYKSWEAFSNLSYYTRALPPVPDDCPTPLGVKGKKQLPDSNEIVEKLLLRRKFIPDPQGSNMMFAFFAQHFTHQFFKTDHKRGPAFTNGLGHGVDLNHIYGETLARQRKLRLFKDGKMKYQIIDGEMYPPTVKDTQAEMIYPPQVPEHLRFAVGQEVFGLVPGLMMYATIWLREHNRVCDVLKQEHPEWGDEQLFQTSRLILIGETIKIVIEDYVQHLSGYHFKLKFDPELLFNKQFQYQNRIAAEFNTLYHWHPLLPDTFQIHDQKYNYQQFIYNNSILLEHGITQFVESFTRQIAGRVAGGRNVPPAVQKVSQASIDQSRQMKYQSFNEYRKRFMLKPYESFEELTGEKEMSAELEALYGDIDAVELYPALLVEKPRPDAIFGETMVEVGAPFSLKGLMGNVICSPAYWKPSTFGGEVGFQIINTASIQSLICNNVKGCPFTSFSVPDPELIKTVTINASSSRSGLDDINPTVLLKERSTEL
Protocol: Chinese hamster ovary (CHO) cell lines which have been stably transfected with an eukaryotic expression vector pCDNAIII containing either the human COX-1 or COX-2 cDNA's are used for the assay. These cell lines are referred to as CHO [hCOX-1] and CHO [hCOX-2], respectively. For cyclooxygenase assays, CHO[hCOX-1] cells from suspension cultures and CHO[hCOX-2] cells prepared by trypsinization of adherent cultures are harvested by centrifugation (300 x g, 10 min) and washed once in HBSS containing 15 mM HEPES, pH 7.4, and resuspended in HBSS, 15 mM HEPES, pH 7.4, at a cell concentration of 1.5 x 10^6 cells/ml. […] Cells are then challenged in the presence or absence of drug with the AA/HBSS solution to yield a final concentration of 0.5 µM AA in the CHO[hCOX-1] assay and a final concentration of 10 µM AA in the CHO[hCOX-2] assay. […] Cyclooxygenase activity in the absence of test compounds is determined as the difference in PGE2 levels of cells challenged with arachidonic acid versus the PGE2 levels in cells mock-challenged with ethanol vehicle. Inhibition of PGE2 synthesis by test compounds is calculated as a percentage of the activity in the presence of drug versus the activity in the positive control samples.
In the assay, inhibition is determined by measuring the amount of prostaglandin E2 (PGE2) synthesized in the presence of arachidonic acid, COX-1 or COX-2 and a putative inhibitor. […]

T1 sequence (P23219 24-599): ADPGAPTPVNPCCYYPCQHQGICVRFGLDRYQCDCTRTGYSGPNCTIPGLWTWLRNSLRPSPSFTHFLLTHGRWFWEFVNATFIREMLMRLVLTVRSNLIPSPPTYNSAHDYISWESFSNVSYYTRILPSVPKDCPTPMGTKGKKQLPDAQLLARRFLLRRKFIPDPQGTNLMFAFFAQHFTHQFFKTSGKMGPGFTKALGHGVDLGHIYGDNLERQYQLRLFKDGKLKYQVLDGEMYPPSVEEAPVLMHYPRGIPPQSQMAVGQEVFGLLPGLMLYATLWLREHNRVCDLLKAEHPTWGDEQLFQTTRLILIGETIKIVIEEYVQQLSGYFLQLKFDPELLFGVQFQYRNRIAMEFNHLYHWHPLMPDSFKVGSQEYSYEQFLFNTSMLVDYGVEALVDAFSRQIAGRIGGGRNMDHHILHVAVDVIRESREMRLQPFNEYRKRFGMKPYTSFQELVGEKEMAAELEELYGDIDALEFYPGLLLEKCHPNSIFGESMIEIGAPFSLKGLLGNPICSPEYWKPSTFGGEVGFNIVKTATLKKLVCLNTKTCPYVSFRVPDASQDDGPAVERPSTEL

CC1(C)C(=O)C(c2ccc(S(C)(=O)=O)cc2)=C1c1ccccc1 [Example 30, 4,4-dimethyl-2-(4-methylsulfonylphenyl)-3-phenyl-2-cyclobuten-1-one]
pIC50 (COX-1): 5.96

C/C(CO)=C1\CC(c2ccc(S(C)(=O)=O)cc2)=C1c1ccccc1 [Example 42]
pIC50 (COX-1): 5.82 | pIC50 (COX-2): 7.66

CC1(c2ccsc2)C(=O)C(c2ccccc2)=C1c1ccc(S(C)(=O)=O)cc1 (stereo not drawn) [Example 6, 4-Methyl-3-(4-methylsulfonylphenyl)-2-phenyl-4-(3-thienyl)-2-cyclobuten-1-one]
pIC50 (COX-1): 5.70 | pIC50 (COX-2): 7.60

C=C1CC(c2ccc(S(C)(=O)=O)cc2)=C1c1ccccc1 [Example 39, 3-Methylene-1-(4-methylsulfonylphenyl)-2-phenyl-1-cyclobutene]
pIC50 (COX-1): 6.00

Source: EP0889878B1 (Merck Frosst Canada & Co., priority 1996, dated 1997)
